Assay results as given in patent US20230085307A1, “PYRIDAZINONE COMPOUND AND HERBICIDE” (NISSAN CHEMICAL CORPORATION, priority 2019, published 2023).

Assays:
barnyard grass [1] = test: Test Example 3: herbicidal effect by foliage application, Wagner pot (Table 18, symbol H); assay type: in vivo, barnyard grass (Echinochloa crus-galli); conditions: 320 g/ha
Summary of the method: (§1)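 Plants were sown in alluvial soil held under 0.1–0.5 cm standing water and grown 14 days in a greenhouse at 25–30 °C. An emulsifiable formulation, water-diluted to the set dose, was then sprayed onto the foliage, and effects were scored three weeks later using previously defined criteria.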

rice flat sedge = test: Test Example 3: herbicidal effect by foliage application, Wagner pot (Table 18, symbol E); assay type: in vivo, rice flat sedge (Cyperus iria); conditions: 320 g/ha
Summary of the method: as §1

green foxtail = test: Test Example 5: herbicidal effect by foliage application, plastic box (Table 20, symbol G); assay type: in vivo, green foxtail (Setaria viridis); conditions: foliage application, 320 g/ha; for herbicidal effect on green foxtail (G): three weeks after application
Source text: (§2) [Test Example 5] Herbicidal Effect Test by Foliage Application
(§3) Sterilized diluvial soil was placed in a plastic box having a length of 21 cm, a width of 13 cm, and a depth of 7 cm. The seeds of each of southern crabgrass, green foxtail, barnyard grass, wild oat, blackgrass, Italian ryegrass, windgrass, velvetleaf, redroot pigweed, lambsquarters, chickweed, false cleavers, persian speedwell, corn, soybean, rice, wheat, beet, and rapeseed were sowed in a spot-like manner and covered with the soil having a thickness of about 1.5 cm. Thereafter, the plants were grown in a greenhouse at 25° C. to 30° C. After 14-day growth of the plants, the emulsion agent of the compound of the present invention prepared according to Formulation Example 2 was diluted with water so as to achieve a predetermined herbicide amount, and the diluted emulsion agent was uniformly applied to a foliage part with a small-sized spray. Three weeks after the herbicide application, the effect of the herbicide on each plant was evaluated according to the criteria of Test Example 1.

southern crabgrass = test: Test Example 5: herbicidal effect by foliage application, plastic box (Table 20, symbol F); assay type: in vivo, southern crabgrass (Digitaria ciliaris); conditions: foliage application, 320 g/ha; for herbicidal effect on southern crabgrass (F): three weeks after application
Source text: as §2, §3

wild oat = test: Test Example 5: herbicidal effect by foliage application, plastic box (Table 20, symbol I); assay type: in vivo, wild oat (Avena fatua); conditions: foliage application, 320 g/ha; for herbicidal effect on wild oat (I): three weeks after application
Source text: as §2, §3

barnyard grass [2] = test: Test Example 5: herbicidal effect by foliage application, plastic box (Table 20, symbol H); assay type: in vivo, barnyard grass (Echinochloa crus-galli); conditions: foliage application, 320 g/ha; for herbicidal effect on barnyard grass (H): three weeks after application
Summary of the method: (§4)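 Foliar spray test: emulsion formulation diluted in water to a set application rate, sprayed onto 14-day-old plants raised in diluvial soil at 25° C to 30° C under glass. Both herbicidal effect and crop effect rated visually three weeks later.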

Italian ryegrass = test: Test Example 5: herbicidal effect by foliage application, plastic box (Table 20, symbol K); assay type: in vivo, Italian ryegrass (Lolium multiflorum); conditions: foliage application, 320 g/ha; for herbicidal effect on Italian ryegrass (K): three weeks after application
Source text: as §2, §3

velvetleaf = test: Test Example 5: herbicidal effect by foliage application, plastic box (Table 20, symbol M); assay type: in vivo, velvetleaf (Abutilon theophrasti); conditions: foliage application, 320 g/ha; for herbicidal effect on velvetleaf (M): three weeks after application
Source text: as §2, §3

persian speedwell = test: Test Example 5: herbicidal effect by foliage application, plastic box (Table 20, symbol R); assay type: in vivo, Persian speedwell (Veronica persica); conditions: foliage application, 320 g/ha; for herbicidal effect on persian speedwell (R): three weeks after application
Summary of the method: as §4

blackgrass = test: Test Example 5: herbicidal effect by foliage application, plastic box (Table 20, symbol J); assay type: in vivo, blackgrass (Alopecurus myosuroides); conditions: foliage application, 320 g/ha; for herbicidal effect on blackgrass (J): three weeks after application
Summary of the method: as §4

windgrass = test: Test Example 5: herbicidal effect by foliage application, plastic box (Table 20, symbol L); assay type: in vivo, windgrass (Apera spica-venti); conditions: foliage application, 320 g/ha; for herbicidal effect on windgrass (L): three weeks after application
Source text: as §2, §3

Chinese sprangletop = test: Test Example 3: herbicidal effect by foliage application, Wagner pot (Table 18, symbol D); assay type: in vivo, chinese sprangletop (Leptochloa chinensis); conditions: 320 g/ha
Protocol: [Test Example 3] Herbicidal Effect Test by Foliage Application After alluvial soil was placed into 1/10000 are of Wagner pot, water was poured and mixed to form a submerged condition having a water depth of 0.1 cm to 0.5 cm. Seeds of barnyard grass, Chinese sprangletop, rice flat sedge, and rice were sowed and the pot was placed in a greenhouse at 25° C. to 30° C. for growth of the plants. After 14-day growth of the plants, the emulsion agent of the compound of the present invention prepared according to Formulation Example 2 was diluted with water so as to achieve a predetermined herbicide amount, and the diluted emulsion agent was uniformly applied to a foliage part with a small-sized spray. Three weeks after the herbicide application, the effect of the herbicide on each plant was evaluated according to the criteria of Test Example 1.

lambsquarters = test: Test Example 5: herbicidal effect by foliage application, plastic box (Table 20, symbol O); assay type: in vivo, lambsquarters (Chenopodium album); conditions: foliage application, 320 g/ha; for herbicidal effect on lambsquarters (O): three weeks after application
Summary of the method: as §4

Row | Structure (SMILES) | herbicidal effect on barnyard grass (H) (barnyard grass [1]) | herbicidal effect on rice flat sedge (E) (rice flat sedge) | herbicidal effect on green foxtail (G) (green foxtail) | herbicidal effect on southern crabgrass (F) (southern crabgrass) | herbicidal effect on wild oat (I) (wild oat) | herbicidal effect on barnyard grass (H) (barnyard grass [2]) | herbicidal effect on Italian ryegrass (K) (Italian ryegrass) | herbicidal effect on velvetleaf (M) (velvetleaf) | herbicidal effect on persian speedwell (R) (persian speedwell) | herbicidal effect on blackgrass (J) (blackgrass) | herbicidal effect on windgrass (L) (windgrass) | herbicidal effect on Chinese sprangletop (D) (Chinese sprangletop) | herbicidal effect on lambsquarters (O) (lambsquarters) | also measured
1 | C#CCOc1c(C)nn(C)c(=O)c1-c1c(-c2ccc(F)cc2)sc2ccc(F)cc12 [2-006] | – | – | – | – | – | – | – | – | – | – | – | – | – | herbicidal effect on H (barnyard grass), rating 0-5 (barnyard grass [1]): 2 (Herbicidal rate of 20% or more and less than 40%); herbicidal effect on E (rice flat sedge), rating 0-5 (rice flat sedge): 0 (Herbicidal rate of 5% or less (almost no effect)); effect on green foxtail (G) (green foxtail; 3 weeks after application): 0 (Herbicidal rate of 5% or less (almost no effect)); effect on southern crabgrass (F) (southern crabgrass; 3 weeks after application): 0 (Herbicidal rate of 5% or less (almost no effect)); effect on wild oat (I) (wild oat; 3 weeks after application): 0 (Herbicidal rate of 5% or less (almost no effect)); effect on barnyard grass (H) (barnyard grass [2]; 3 weeks after application): 0 (Herbicidal rate of 5% or less (almost no effect)); effect on Italian ryegrass (K) (Italian ryegrass; 3 weeks after application): 0 (Herbicidal rate of 5% or less (almost no effect)); effect on velvetleaf (M) (velvetleaf; 3 weeks after application): 0 (Herbicidal rate of 5% or less (almost no effect)); effect on persian speedwell (R) (persian speedwell; 3 weeks after application): 2 (Herbicidal rate of 20% or more and less than 40%); effect on blackgrass (J) (blackgrass; 3 weeks after application): 0 (Herbicidal rate of 5% or less (almost no effect)); effect on windgrass (L) (windgrass; 3 weeks after application): 0 (Herbicidal rate of 5% or less (almost no effect)); herbicidal effect on D (Chinese sprangletop), rating 0-5 (Chinese sprangletop): 0 (Herbicidal rate of 5% or less (almost no effect)); effect on lambsquarters (O) (lambsquarters; 3 weeks after application): 0 (Herbicidal rate of 5% or less (almost no effect))
2 | CCCC(=O)Oc1c(C)nn(C)c(=O)c1-c1c(-c2ccc(F)cc2)sc2cc(OC)c(OC)cc12 [5-058] | 0 (Herbicidal rate of 5% or less (almost no effect)) | 3 (Herbicidal rate of 40% or more and less than 70%) | 0 (Herbicidal rate of 5% or less (almost no effect)) | 0 (Herbicidal rate of 5% or less (almost no effect)) | 0 (Herbicidal rate of 5% or less (almost no effect)) | 0 (Herbicidal rate of 5% or less (almost no effect)) | 1 (Herbicidal rate of 5% or more and less than 20%) | 0 (Herbicidal rate of 5% or less (almost no effect)) | 0 (Herbicidal rate of 5% or less (almost no effect)) | 0 (Herbicidal rate of 5% or less (almost no effect)) | 0 (Herbicidal rate of 5% or less (almost no effect)) | 0 (Herbicidal rate of 5% or less (almost no effect)) | 0 (Herbicidal rate of 5% or less (almost no effect)) | –
3 | COc1cc2sc(-c3ccc(F)cc3)c(-c3c(O)c(C)nn(C)c3=O)c2cc1Cl [5-067] | 3 (Herbicidal rate of 40% or more and less than 70%) | 4 (Herbicidal rate of 70% or more and less than 90%) | 0 (Herbicidal rate of 5% or less (almost no effect)) | 0 (Herbicidal rate of 5% or less (almost no effect)) | 0 (Herbicidal rate of 5% or less (almost no effect)) | 0 (Herbicidal rate of 5% or less (almost no effect)) | 0 (Herbicidal rate of 5% or less (almost no effect)) | 0 (Herbicidal rate of 5% or less (almost no effect)) | 4 (Herbicidal rate of 70% or more and less than 90%) | 1 (Herbicidal rate of 5% or more and less than 20%) | 1 (Herbicidal rate of 5% or more and less than 20%) | 5 (Herbicidal rate of 90% or more (almost completely withered)) | 3 (Herbicidal rate of 40% or more and less than 70%) | –
4 | COc1cc2sc(-c3ccc(F)cc3OC)c(-c3c(O)c(C)nn(C)c3=O)c2cc1Cl [5-075] | 5 (Herbicidal rate of 90% or more (almost completely withered)) | 3 (Herbicidal rate of 40% or more and less than 70%) | 5 (Herbicidal rate of 90% or more (almost completely withered)) | 3 (Herbicidal rate of 40% or more and less than 70%) | 0 (Herbicidal rate of 5% or less (almost no effect)) | 4 (Herbicidal rate of 70% or more and less than 90%) | 0 (Herbicidal rate of 5% or less (almost no effect)) | 0 (Herbicidal rate of 5% or less (almost no effect)) | 4 (Herbicidal rate of 70% or more and less than 90%) | 3 (Herbicidal rate of 40% or more and less than 70%) | 3 (Herbicidal rate of 40% or more and less than 70%) | 3 (Herbicidal rate of 40% or more and less than 70%) | 4 (Herbicidal rate of 70% or more and less than 90%) | –
5 | Cc1cc2sc(-c3ccc(F)cc3)c(-c3c(O)c(C)nn(C)c3=O)c2cc1C [5-088] | 3 (Herbicidal rate of 40% or more and less than 70%) | 2 (Herbicidal rate of 20% or more and less than 40%) | 0 (Herbicidal rate of 5% or less (almost no effect)) | 0 (Herbicidal rate of 5% or less (almost no effect)) | 0 (Herbicidal rate of 5% or less (almost no effect)) | 0 (Herbicidal rate of 5% or less (almost no effect)) | 1 (Herbicidal rate of 5% or more and less than 20%) | 2 (Herbicidal rate of 20% or more and less than 40%) | 4 (Herbicidal rate of 70% or more and less than 90%) | 0 (Herbicidal rate of 5% or less (almost no effect)) | 0 (Herbicidal rate of 5% or less (almost no effect)) | 2 (Herbicidal rate of 20% or more and less than 40%) | 0 (Herbicidal rate of 5% or less (almost no effect)) | –
6 | COc1ccc(-c2sc3cc(C)c(C)cc3c2-c2c(O)c(C)nn(C)c2=O)cc1 [5-092] | 2 (Herbicidal rate of 20% or more and less than 40%) | 0 (Herbicidal rate of 5% or less (almost no effect)) | 0 (Herbicidal rate of 5% or less (almost no effect)) | 0 (Herbicidal rate of 5% or less (almost no effect)) | 0 (Herbicidal rate of 5% or less (almost no effect)) | 0 (Herbicidal rate of 5% or less (almost no effect)) | 0 (Herbicidal rate of 5% or less (almost no effect)) | 0 (Herbicidal rate of 5% or less (almost no effect)) | 4 (Herbicidal rate of 70% or more and less than 90%) | 0 (Herbicidal rate of 5% or less (almost no effect)) | 0 (Herbicidal rate of 5% or less (almost no effect)) | 0 (Herbicidal rate of 5% or less (almost no effect)) | 0 (Herbicidal rate of 5% or less (almost no effect)) | –
